# Source: patent US10570129B2 (Zoetis Services LLC, priority 2015, dated 2020)
# Experiments:
# [1] = system: Haemonchus contortus L3; assay: microbe, parasite or virus in culture; format: cell-based; conditions: Haemonchus contortus, 96 h, read-out: HcL3 Minimal Effective Concentration (MEC)
# [2] = system: D. immitis microfilariae; assay: Dirofilaria immitis, microfilariae (DiMF) in vitro motility assay; format: cell-based; conditions: Dirofilaria immitis, 72 h, read-out: DiMF minimally effective dose (MEC)
SMILES,minimal effective concentration [1],minimal effective concentration [2]
"O=C(NCc1ccnc(Cl)c1)n1c2c(c3c(Cl)c(F)ccc31)CN(C/C=C/c1ccc(Cl)cc1)CC2 [Example 305, (E)-9-chloro-2-(3-(4-chlorophenyl)allyl)-N-((2-chloropyridin-4-yl)methyl)-8-fluoro-1,2,3,4-tetrahydro-5H-pyrido[4,3-b]indole-5-carboxamide]",0.9 µM,16.5 µM
"N#Cc1ccc2c(c1)c1c(n2C(=O)NCc2ccnc(Cl)c2)CCN(C/C=C/c2c(F)cc(F)cc2F)C1 [Example 76, (E)-N-((2-chloropyridin-4-yl)methyl)-8-cyano-2-(3-(2,4,6-trifluorophenyl)allyl)-1,2,3,4-tetrahydro-5H-pyrido[4,3-b]indole-5-carboxamide]",0.1 µM,> 100 µM
"O=C(NCc1ccnc(Cl)c1)n1c2c(c3cc(F)c(Cl)cc31)CN(C/C=C/c1ccc(Cl)cc1)CC2 [Example 304, (E)-7-chloro-2-(3-(4-chlorophenyl)allyl)-N-((2-chloropyridin-4-yl)methyl)-8-fluoro-1,2,3,4-tetrahydro-5H-pyrido[4,3-b]indole-5-carboxamide]",0.3 µM,18.2 µM
"O=C(NCc1ccnc(Cl)c1)n1c2c(c3cc(Cl)c(C(F)(F)F)cc31)CN(C/C=C/c1ccc(Cl)cc1)CC2 [Example 328, (E)-8-chloro-2-(3-(4-chlorophenyl)allyl)-N-((2-chloropyridin-4-yl)methyl)-7-(trifluoromethyl)-1,2,3,4-tetrahydro-5H-pyrido[4,3-b]indole-5-carboxamide]",0.3 µM,33 µM
"O=C(NCc1ccnc(Cl)c1)n1c2c(c3cc(Br)ccc31)CN(C/C=C/c1ccc(F)c(Cl)c1)CC2 [Example 182, (E)-8-bromo-2-(3-(3-chloro-4-fluorophenyl)allyl)-N-((2-chloropyridin-4-yl)methyl)-1,2,3,4-tetrahydro-5H-pyrido[4,3-b]indole-5-carboxamide]",1 µM,> 100 µM
"N#Cc1ccc2c(c1)c1c(n2C(=O)NCc2ccnc(O)c2)CCN(C/C=C/c2ccc(Cl)c(Cl)c2)C1 [Example 449, (E)-8-cyano-2-(3-(3,4-dichlorophenyl)allyl)-N-((2-hydroxypyridin-4-yl)methyl)-1,2,3,4-tetrahydro-5H-pyrido[4,3-b]indole-5-carboxamide]",> 100 µM,> 100 µM
"N#Cc1ccc2c(c1)c1c(n2C(=O)NCc2ccnc(F)c2)CCN(C/C=C/c2cccc(F)c2F)C1 [Example 119, (E)-8-cyano-2-(3-(2,3-difluorophenyl)allyl)-N-((2-fluoropyridin-4-yl)methyl)-1,2,3,4-tetrahydro-5H-pyrido[4,3-b]indole-5-carboxamide]",3.3 µM,18.2 µM
"CS(=O)(=O)c1ccc2c(c1)c1c(n2C(=O)NCc2ccnc(Cl)c2)CCN(C/C=C/c2ccc(F)cc2F)C1 [Example 456, (E)-N-((2-chloropyridin-4-yl)methyl)-2-(3-(2,4-difluorophenyl)allyl)-8-(methylsulfonyl)-1,2,3,4-tetrahydro-5H-pyrido[4,3-b]indole-5-carboxamide]",1.3 µM,10 µM
"O=C(NCc1ccnc(Cl)c1)n1c2c(c3cc(Cl)ccc31)CN(Cc1ccc3cc(Cl)ccc3n1)CC2 [Example 247, 8-chloro-N-((2-chloropyridin-4-yl)methyl)-2-((6-chloroquinolin-2-yl)methyl)-1,2,3,4-tetrahydro-5H-pyrido[4,3-b]indole-5-carboxamide]",1 µM,1.8 µM
"O=C(NCc1ccnc(F)c1)n1c2c(c3cc(OC(F)(F)F)ccc31)CN(C/C=C/c1ccc(F)c(F)c1)CC2 [Example 405, (E)-2-(3-(3,4-difluorophenyl)allyl)-N-((2-fluoropyridin-4-yl)methyl)-8-(trifluoromethoxy)-1,2,3,4-tetrahydro-5H-pyrido[4,3-b]indole-5-carboxamide]",0.3 µM,5.7 µM
"O=C(NCc1ccnc(Cl)c1)n1c2c(c3cc(Cl)c(Cl)cc31)CN(C/C=C/c1ccc(C(F)(F)F)cc1)CC2 [Example 285, (E)-7,8-dichloro-N-((2-chloropyridin-4-yl)methyl)-2-(3-(4-(trifluoromethyl)-phenyl)allyl)-1,2,3,4-tetrahydro-5H-pyrido[4,3-b]indole-5-carboxamide]",> 100 µM,10 µM
"O=C(NCc1ccnc(Cl)c1)n1c2c(c3c4c(ccc31)COC4)CN(C/C=C/c1ccc(Cl)cc1)CC2 [Example 490, (E)-9-(3-(4-chlorophenyl)allyl)-N-((2-chloropyridin-4-yl)methyl)-1,3,7,8,9,10-hexahydro-6H-furo[3,4-e]pyrido[4,3-b]indole-6-carboxamide]",0.2 µM,10 µM
"NC(=O)c1ccc2c3c(n(C(=O)NCc4ccnc(Cl)c4)c2c1)CCN(C/C=C/c1ccc(Cl)cc1)C3 [Example 464, (E)-2-(3-(4-chlorophenyl)allyl)-N^5-((2-chloropyridin-4-yl)methyl)-1,2,3,4-tetrahydro-5H-pyrido[4,3-b]indole-5,7-dicarboxamide]",3.3 µM,7.6 µM
"O=C(NCc1ccnc(F)c1)n1c2c(c3cc(OC(F)(F)F)ccc31)CN(C/C=C/c1ccc(Cl)cc1)CC2 [Example 408, (E)-2-(3-(4-chlorophenyl)allyl)-N-((2-fluoropyridin-4-yl)methyl)-8-(trifluoromethoxy)-1,2,3,4-tetrahydro-5H-pyrido[4,3-b]indole-5-carboxamide]",1 µM,10 µM
"O=C(NCc1ccnc(Cl)c1)n1c2c(c3ccc(OC(F)(F)F)cc31)CN(C/C=C/c1c(F)cc(F)cc1F)CC2 [Example 341, (E)-N-((2-chloropyridin-4-yl)methyl)-7-(trifluoromethoxy)-2-(3-(2,4,6-trifluorophenyl)allyl)-1,2,3,4-tetrahydro-5H-pyrido[4,3-b]indole-5-carboxamide]",3.3 µM,5.7 µM
"O=C(NCc1ccnc(Cl)c1)n1c2c(c3cc(N4CCCSC4)ccc31)CN(C/C=C/c1ccc(Cl)c(Cl)c1)CC2 [Example 511, (E)-N-((2-chloropyridin-4-yl)methyl)-2-(3-(3,4-dichlorophenyl)allyl)-8-(1,3-thiazinan-3-yl)-1,2,3,4-tetrahydro-5H-pyrido[4,3-b]indole-5-carboxamide]",> 100 µM,> 100 µM
"O=C(NCc1ccnc(F)c1)n1c2c(c3cc(F)c(Cl)cc31)CN(C/C=C/c1ccc(Cl)cc1F)CC2 [Example 310, (E)-7-chloro-2-(3-(4-chloro-2-fluorophenyl)allyl)-8-fluoro-N-((2-fluoropyridin-4-yl)methyl)-1,2,3,4-tetrahydro-5H-pyrido[4,3-b]indole-5-carboxamide]",1.3 µM,24.5 µM
"N#Cc1ccc(/C=C/CN2CCc3c(c4ccc(Cl)cc4n3C(=O)NCc3ccnc(Cl)c3)C2)cc1F [Example 208, (E)-7-chloro-N-((2-chloropyridin-4-yl)methyl)-2-(3-(4-cyano-3-fluorophenyl)allyl)-1,2,3,4-tetrahydro-5H-pyrido[4,3-b]indole-5-carboxamide]",1.8 µM,> 100 µM
"O=C(NCc1ccnc(F)c1)n1c2c(c3ccc(OC(F)(F)F)cc31)CN(C/C=C/c1cc(F)cc(Cl)c1)CC2 [Example 380, (E)-2-(3-(3-chloro-5-fluorophenyl)allyl)-N-((2-fluoropyridin-4-yl)methyl)-7-(trifluoromethoxy)-1,2,3,4-tetrahydro-5H-pyrido[4,3-b]indole-5-carboxamide]",> 100 µM,33 µM
"O=C(NCc1ccnc(Cl)c1)n1c2c(c3c(C(F)(F)F)cccc31)CN(C/C=C/c1ccc(Cl)c(Cl)c1)CC2 [Example 159, (E)-N-((2-chloropyridin-4-yl)methyl)-2-(3-(3,4-dichlorophenyl)allyl)-9-(trifluoromethyl)-1,2,3,4-tetrahydro-5H-pyrido[4,3-b]indole-5-carboxamide]",18.2 µM,10 µM
"N#Cc1ccc2c(c1)c1c(n2C(=O)NCc2ccnc(Cl)c2)CCN(C/C=C/c2ccc(Cl)c(F)c2)C1 [Example 72, (E)-2-(3-(4-chloro-3-fluorophenyl)allyl)-N-((2-chloropyridin-4-yl)methyl)-8-cyano-1,2,3,4-tetrahydro-5H-pyrido[4,3-b]indole-5-carboxamide]",0.2 µM,5.1 µM
"N#Cc1cc2c(cc1F)c1c(n2C(=O)NCc2ccnc(Cl)c2)CCN(C/C=C/c2ccc(F)cc2)C1 [Example 175, (E)-N-((2-chloropyridin-4-yl)methyl)-7-cyano-8-fluoro-2-(3-(4-fluorophenyl)allyl)-1,2,3,4-tetrahydro-5H-pyrido[4,3-b]indole-5-carboxamide]",1.8 µM,10 µM
"O=C(NCc1ccnc(Cl)c1)n1c2c(c3cc(N4CCCC4)ccc31)CN(C/C=C/c1ccc(Cl)c(F)c1)CC2 [Example 506, (E)-2-(3-(4-chloro-3-fluorophenyl)allyl)-N-((2-chloropyridin-4-yl)methyl)-8-(pyrrolidin-1-yl)-1,2,3,4-tetrahydro-5H-pyrido[4,3-b]indole-5-carboxamide]",7.6 µM,> 100 µM
"O=C(NCc1cnc(Cl)s1)n1c2c(c3c(Cl)c(Cl)ccc31)CN(C/C=C/c1ccc(Cl)cc1)CC2 [Example 295, (E)-8,9-dichloro-2-(3-(4-chlorophenyl)allyl)-N-((2-chlorothiazol-5-yl)methyl)-1,2,3,4-tetrahydro-5H-pyrido[4,3-b]indole-5-carboxamide]",> 100 µM,18.2 µM
